In assay [1] the target is PDGFR-α (Homo sapiens (Human), UniProt P16234). Kind of assay: Enzyme selectivity test (ELISA), PDGFR-α. It counts as biochemical. The protocol: (§1) 1) Enzyme reaction substrate Poly(Glu, Tyr) 4:1 was diluted to 20 μg/mL with potassium-free PBS (10 mM sodium phosphate buffer, 150 mM NaCl, pH 7.2-7.4), and the microtiter plate was coated with 125 μL/well and placed at 37° C. for 12-16 hours of reaction. The liquid in the well was discard. The plate was washed three times with T-PBS (potassium-free PBS containing 0.1% Tween-20, 200 μL/well), 5 minutes each time. The ELISA plate was dried in an oven at 37° C. for 1 to 2 hours.
Chain of PDGFR-α (P16234 24-1089, species assumed): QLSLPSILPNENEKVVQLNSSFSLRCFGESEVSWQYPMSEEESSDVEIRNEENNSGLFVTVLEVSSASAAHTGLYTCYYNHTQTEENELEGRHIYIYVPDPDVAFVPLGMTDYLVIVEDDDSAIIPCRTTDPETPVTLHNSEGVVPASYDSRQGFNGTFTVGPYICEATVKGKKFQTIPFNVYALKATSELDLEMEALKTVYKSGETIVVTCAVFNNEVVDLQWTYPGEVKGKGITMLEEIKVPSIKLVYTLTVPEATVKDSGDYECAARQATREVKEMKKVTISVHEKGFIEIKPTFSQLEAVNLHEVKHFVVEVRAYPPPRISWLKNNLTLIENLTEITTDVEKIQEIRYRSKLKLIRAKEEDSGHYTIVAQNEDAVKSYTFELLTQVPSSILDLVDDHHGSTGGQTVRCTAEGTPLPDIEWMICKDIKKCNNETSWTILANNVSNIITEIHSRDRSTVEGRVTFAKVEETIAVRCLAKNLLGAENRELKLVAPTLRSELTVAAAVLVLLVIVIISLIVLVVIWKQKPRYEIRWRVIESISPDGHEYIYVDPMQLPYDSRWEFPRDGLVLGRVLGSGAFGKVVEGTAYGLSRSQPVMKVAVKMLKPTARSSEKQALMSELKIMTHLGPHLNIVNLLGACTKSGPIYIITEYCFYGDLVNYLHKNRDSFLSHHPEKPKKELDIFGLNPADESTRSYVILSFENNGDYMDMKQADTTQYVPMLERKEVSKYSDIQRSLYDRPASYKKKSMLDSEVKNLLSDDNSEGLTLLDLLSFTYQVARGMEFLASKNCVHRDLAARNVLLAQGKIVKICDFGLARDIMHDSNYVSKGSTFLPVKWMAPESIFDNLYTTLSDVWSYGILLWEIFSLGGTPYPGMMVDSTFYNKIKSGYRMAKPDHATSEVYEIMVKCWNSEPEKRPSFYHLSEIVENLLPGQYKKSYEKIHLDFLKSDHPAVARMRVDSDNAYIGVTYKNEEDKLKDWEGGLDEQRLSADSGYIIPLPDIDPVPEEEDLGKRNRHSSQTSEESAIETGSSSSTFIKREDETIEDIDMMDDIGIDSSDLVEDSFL
(§2) 2) Reaction buffer (50 mM HEPES pH 7.4, 50 mM MgCl2, 0.5 mM MnCl2, 0.2 mM Na3VO4, 1 mM DTT) diluted ATP solution (49 μL) was added to each well, 1 μL of the compound to be tested was added to each well, and then 50 μL of DDR2 kinase domain recombinant protein diluted in the reaction buffer was added to start the reaction. Two control wells without ATP were set in each experiment. The plate placed on a shaker (100 rpm) at 37° C. for 1 hour of reaction. The liquid in the well was discarded and the plate was washed three times with T-PBS.
(§3) 3) Antibody PY99 dilution solution (the antibody was diluted 1:500 with T-PBS containing BSA 5 mg/mL) was added at 100 μL/well, and shaken on a shaker at 37° C. for 0.5 hour of reaction. The liquid in the well was discarded and the plate was washed three times with T-PBS.
(§4) 4) Horseradish peroxidase labeled goat anti-murine secondary antibody dilution solution (the antibody is diluted 1:2000 with T-PBS containing BSA 5 mg/ml) was added at 100 μL/well, and shaken on a shaker at 37° C. for 0.5 hour of reaction. The liquid in the well was discarded and the plate was washed three times with T-PBS.
(§5) 5) 2 mg/ml of OPD color developing solution [diluted with 0.1 M citric acid-sodium citrate buffer (pH=5.4) containing 0.03% H2O2] was added at 100 μL/well and reacted for 1 to 10 minutes at 25° C. in the dark.
(§6) 6) 2M H2SO4 was added at 50 μL/well to stop the reaction, and a tunable wavelength microplate reader VERSAmax was used for reading at a wavelength of 490 nm.
(§7) The IC50 value was obtained by four-parameter regression using the software that came with the microplate reader. […]

Assay [2] addresses Met (Homo sapiens (Human), UniProt P08581). Kind of assay: Enzyme selectivity test (ELISA), Met. The format is biochemical. The protocol: as §1, §2, §3, §4, §5, §6, §7
Assay [3] concerns the target ALK (Homo sapiens (Human), UniProt Q9UM73). Nature of the assay: Enzyme selectivity test (ELISA), ALK. The format is biochemical. As to the method: as §1, §2, §3, §4, §5, §6, §7
Assay [4] concerns the target FGFR-1 (Homo sapiens (Human), UniProt P11362). Nature of the assay: Enzyme selectivity test (ELISA), FGFR-1. The format is biochemical. As to the method: as §1, §2, §3, §4, §5, §6, §7
For assay [5], the system named is mouse model of BLM-induced lung injury. Kind of assay: Histopathological evaluation of lung sections, H&E staining. It counts as in vivo. As to conditions: Effect example 4; mice; S15 30, 60, 90 mg/kg, Nintedanib 30 mg/kg, oral qd 12 days. As to the method:
Experimental objective: This group of experiments aimed to investigate the therapeutic potential of the compound S15 in acute lung injury and inflammation induced by bleomycin (BLM).
Experimental grouping (8 mice per group):
Model group (BLM): the mice received BLM (1.7 U/kg) via intratracheal instillation;
Compound S15 group (S15): this group was divided into three dose groups, namely 30, 60 and 90 mg/kg;
Positive control group (Nintedanib): Nintedanib administration group;
Negative control group (Control): only saline was used.
1) Material acquisition: The fresh tissue was fixed in 4% paraformaldehyde for more than 24 hours. The tissue was removed from the fixative solution and trim the tissue at the target site. The trimmed tissue was marked and placed in the dehydration box for later use.
2) Dehydration: The dehydration box was put in the dehydrator and different concentration gradients of ethanol was used sequentially for dehydration. 75% ethanol (4 hours), 85% ethanol (2 hours), 90% ethanol (2 hours), 95% ethanol (1 hour), absolute ethanol I (30 minutes), absolute ethanol II (30 minutes), alcohol benzene (5-10 minutes), xylene I (5-10 minutes), xylene II (5-10 minutes), wax I (1 hour), wax II (1 hour), wax III (1 hour).
3) Embedment: The wax melted at high temperature was put into the embedding frame; before the wax was cooled and solidified, the tissue was taken out of the dehydration box, put into the embedding frame according to the requirements of the embedding surface, marked and cooled at −20° C. After completely solidified, the wax block was removed from the embedding frame and trimmed.
4) Section: The trimmed wax block was put on a paraffin microtome for sectioning. The section thickness was about 4 μm. The sections were floated on warm water at 40° C. of the flotation workstation and flatten. A glass slide was used to lift the tissue from the warm water, and put into a 60° C. oven for dryness. After the water was dried and the wax melted, the glass slide was taken out and stored at ambient temperature for later use. […]

Chain of ALK (Q9UM73 19-1620, species assumed): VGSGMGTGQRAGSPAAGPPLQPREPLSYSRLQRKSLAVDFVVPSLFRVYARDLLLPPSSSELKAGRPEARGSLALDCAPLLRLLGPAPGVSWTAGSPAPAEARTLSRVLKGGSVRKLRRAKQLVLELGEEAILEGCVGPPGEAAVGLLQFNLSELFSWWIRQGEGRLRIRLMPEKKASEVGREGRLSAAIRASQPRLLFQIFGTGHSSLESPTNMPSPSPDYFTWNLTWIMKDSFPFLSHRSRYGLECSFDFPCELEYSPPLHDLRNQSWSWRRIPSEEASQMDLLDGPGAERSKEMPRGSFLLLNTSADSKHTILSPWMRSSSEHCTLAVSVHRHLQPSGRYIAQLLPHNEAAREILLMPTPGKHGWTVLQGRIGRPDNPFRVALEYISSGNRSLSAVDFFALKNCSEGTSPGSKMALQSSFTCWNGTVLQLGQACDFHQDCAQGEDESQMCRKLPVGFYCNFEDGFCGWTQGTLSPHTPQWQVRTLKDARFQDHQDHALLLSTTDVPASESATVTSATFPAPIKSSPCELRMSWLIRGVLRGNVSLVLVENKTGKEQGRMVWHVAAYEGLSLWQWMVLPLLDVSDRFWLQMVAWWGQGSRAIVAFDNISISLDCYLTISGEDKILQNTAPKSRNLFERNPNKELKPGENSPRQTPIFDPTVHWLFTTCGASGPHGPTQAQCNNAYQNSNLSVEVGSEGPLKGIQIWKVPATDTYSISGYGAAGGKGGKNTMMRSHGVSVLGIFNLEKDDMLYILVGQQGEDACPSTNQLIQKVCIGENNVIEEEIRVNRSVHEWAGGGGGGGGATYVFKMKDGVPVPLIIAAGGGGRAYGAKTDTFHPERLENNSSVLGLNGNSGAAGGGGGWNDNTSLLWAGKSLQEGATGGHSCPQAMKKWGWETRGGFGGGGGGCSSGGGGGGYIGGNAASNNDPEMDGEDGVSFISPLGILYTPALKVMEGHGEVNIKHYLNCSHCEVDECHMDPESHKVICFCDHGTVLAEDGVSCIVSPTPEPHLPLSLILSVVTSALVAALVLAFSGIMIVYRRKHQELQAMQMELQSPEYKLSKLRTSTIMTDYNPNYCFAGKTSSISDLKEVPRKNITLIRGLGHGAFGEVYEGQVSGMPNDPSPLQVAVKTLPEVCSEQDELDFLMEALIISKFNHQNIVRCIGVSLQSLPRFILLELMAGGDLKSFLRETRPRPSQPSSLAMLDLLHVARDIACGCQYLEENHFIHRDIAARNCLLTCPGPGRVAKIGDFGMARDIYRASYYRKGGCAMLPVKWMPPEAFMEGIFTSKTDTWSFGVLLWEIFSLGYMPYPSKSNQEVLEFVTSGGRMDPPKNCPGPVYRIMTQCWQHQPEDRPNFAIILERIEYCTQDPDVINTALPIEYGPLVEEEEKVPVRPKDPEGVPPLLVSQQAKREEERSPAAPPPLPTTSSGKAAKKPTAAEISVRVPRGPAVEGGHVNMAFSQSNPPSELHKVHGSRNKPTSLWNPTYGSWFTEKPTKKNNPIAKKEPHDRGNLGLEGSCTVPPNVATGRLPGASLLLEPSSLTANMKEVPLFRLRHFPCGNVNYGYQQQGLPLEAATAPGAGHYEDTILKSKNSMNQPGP
Chain of Met (P08581 25-1390): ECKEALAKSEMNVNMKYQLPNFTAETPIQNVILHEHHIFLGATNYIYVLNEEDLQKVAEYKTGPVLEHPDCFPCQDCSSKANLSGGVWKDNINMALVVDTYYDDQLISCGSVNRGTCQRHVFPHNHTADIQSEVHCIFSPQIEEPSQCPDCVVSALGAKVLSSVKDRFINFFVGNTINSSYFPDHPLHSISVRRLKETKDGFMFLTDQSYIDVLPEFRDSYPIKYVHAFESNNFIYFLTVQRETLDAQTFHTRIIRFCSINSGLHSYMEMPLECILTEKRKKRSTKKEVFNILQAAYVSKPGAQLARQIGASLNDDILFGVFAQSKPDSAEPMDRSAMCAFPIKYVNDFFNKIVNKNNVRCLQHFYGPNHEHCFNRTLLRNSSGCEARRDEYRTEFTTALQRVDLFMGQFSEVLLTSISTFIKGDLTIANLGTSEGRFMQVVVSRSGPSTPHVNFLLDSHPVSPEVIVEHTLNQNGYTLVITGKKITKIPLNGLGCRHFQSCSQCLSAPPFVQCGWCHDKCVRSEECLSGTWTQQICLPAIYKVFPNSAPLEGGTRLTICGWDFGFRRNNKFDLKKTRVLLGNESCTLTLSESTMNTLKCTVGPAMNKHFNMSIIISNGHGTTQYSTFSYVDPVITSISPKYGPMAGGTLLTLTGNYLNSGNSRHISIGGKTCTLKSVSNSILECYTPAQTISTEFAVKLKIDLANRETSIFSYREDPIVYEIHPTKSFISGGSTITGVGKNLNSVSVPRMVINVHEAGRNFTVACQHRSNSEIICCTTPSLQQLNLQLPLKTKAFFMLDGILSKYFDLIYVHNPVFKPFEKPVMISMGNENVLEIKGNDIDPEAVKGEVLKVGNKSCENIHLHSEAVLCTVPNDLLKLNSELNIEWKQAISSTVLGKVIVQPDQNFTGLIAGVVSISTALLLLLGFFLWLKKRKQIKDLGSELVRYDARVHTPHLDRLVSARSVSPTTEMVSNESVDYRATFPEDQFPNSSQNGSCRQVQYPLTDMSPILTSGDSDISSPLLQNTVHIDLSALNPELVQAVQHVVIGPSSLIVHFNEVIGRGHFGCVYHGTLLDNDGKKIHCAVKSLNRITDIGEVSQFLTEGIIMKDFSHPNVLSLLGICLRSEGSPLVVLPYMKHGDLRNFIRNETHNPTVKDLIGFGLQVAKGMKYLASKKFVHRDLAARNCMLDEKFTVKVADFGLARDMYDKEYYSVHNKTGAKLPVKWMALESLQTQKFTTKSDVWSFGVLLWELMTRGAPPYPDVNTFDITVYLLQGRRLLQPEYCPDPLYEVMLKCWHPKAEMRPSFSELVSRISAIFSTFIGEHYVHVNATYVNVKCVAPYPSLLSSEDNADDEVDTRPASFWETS
Chain of FGFR-1 (P11362 22-822, species assumed): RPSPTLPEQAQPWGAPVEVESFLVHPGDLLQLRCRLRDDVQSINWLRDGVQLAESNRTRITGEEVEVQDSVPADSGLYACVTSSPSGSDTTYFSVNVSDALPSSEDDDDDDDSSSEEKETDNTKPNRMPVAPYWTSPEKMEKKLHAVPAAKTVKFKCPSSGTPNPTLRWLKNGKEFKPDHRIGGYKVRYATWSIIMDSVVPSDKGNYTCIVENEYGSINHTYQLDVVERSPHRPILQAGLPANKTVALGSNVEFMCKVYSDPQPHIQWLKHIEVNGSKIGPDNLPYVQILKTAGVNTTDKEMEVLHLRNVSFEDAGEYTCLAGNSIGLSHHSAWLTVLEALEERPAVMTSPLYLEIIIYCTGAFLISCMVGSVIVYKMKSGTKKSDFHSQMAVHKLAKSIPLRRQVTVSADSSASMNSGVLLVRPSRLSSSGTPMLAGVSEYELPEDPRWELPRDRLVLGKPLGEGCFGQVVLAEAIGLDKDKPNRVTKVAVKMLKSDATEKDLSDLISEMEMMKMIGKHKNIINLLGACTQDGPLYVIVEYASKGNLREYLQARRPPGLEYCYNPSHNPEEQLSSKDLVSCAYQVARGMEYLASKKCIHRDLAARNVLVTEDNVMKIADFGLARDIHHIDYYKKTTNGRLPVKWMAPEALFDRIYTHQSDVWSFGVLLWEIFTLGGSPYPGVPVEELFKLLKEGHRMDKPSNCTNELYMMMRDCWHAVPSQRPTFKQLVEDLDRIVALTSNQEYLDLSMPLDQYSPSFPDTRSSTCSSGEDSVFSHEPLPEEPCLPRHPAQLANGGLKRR

As to `O=C(Nc1cccc(C(F)(F)F)c1)c1ccc(C2CC2)c(-c2ccc3nc(Nc4cnn(C5CC5)c4)ncc3c2)c1` [Compound S15, 4-cyclopropyl-3-(2-((1-cyclopropyl-1H-pyrazol-4-yl)amino)quinazolin-6-yl)-N-(3-(trifluoromethyl)phenyl)benzamide], the IC50 was over 1000 nM in assay [1], over 1000 nM in assay [2], over 1000 nM in assay [3] and over 10 nM in assay [4]. For the same compound, the “BLM-induced lung injury, H&E staining” value in assay [5] is “improved significantly”.

(Values after US11655239B2 (SHANGHAI INSTITUTE OF MATERIAL MEDICA, CHINESE ACADEMY OF …, priority 2019, dated 2023).)
